Results reported in patent US12577255B2, “MDM2-based modulators of proteolysis and associated methods of use” (Arvinas Operations, Inc., priority 2015, dated 2026).

What was measured:
p53 = assay: Western blot of HCT116 cells, p53 level; type: cell-based, human; conditions: Western blot (FIG. 2, FIG. 3)
MDM2 = molecular target: T1, MDM2 (Homo sapiens, UniProt Q00987); assay: Western blot of HCT116 cells, MDM2 level; type: cell-based; conditions: Western blot (FIG. 2, FIG. 3)
T1 construct: Western blot of HCT116 cells treated with chimeric molecules; endogenous in cells; host or cells: HCT116

[1] = molecular target: T2, bromodomain-containing protein 4 (BRD4) (Homo sapiens, UniProt O60885); assay: BRD4 Western blot (degradation); type: cell-based; conditions: at 1 μM; VCaP cells, 16 h
T2 construct: VCaP cells were chased from ATCC and cultured in Dulbecco's Modified Eagle's Medium; host or cells: VCaP
Procedure: (§1) The following biological assays were performed to evaluate the protein degradation in various cell types using representative compounds disclosed. The degradation of the following proteins were evaluated: bromodomain-containing protein 4 (BRD4), androgen receptor (AR), c-Myc, c-Jun N-terminal kinases (JNK), and enhancer of zeste homolog 2 (EZH2).
VCaP cells were chased from ATCC and cultured in Dulbecco's Modified Eagle's Medium (ATCC), supplemented with 10% FBS (ATCC) and Penicillin/Streptomycin (Life Technologies). DMSO control and compound treatments (0.03 μM to 1 μM) were performed in 12-well plates for 16 h. cells were harvested, and lysed in RIPA buffer (50 mM Tris pH8, 150 mM NaCl, 1% Tx-100, 0.1% SDS, 0.5% sodium deoxycholate) supplemented with protease and phosphatase inhibitors. Lysates were clarified at 16,000 g for 10 minutes, and protein concentration was determined. Equal amount of protein (20 μg) was subjected to SDS-PAGE analysis and followed by immunoblotting according to standard protocols. The antibodies used were BRD4 (Cell signaling #13440), and Actin (Sigma #5441). Detection reagents were Clarity Western ELC substrate (Bio-rad #170-5060).

androgen receptor (AR) = molecular target: T3, androgen receptor (AR) (Homo sapiens, UniProt P10275); assay: AR ELISA assay (degradation); type: cell-based; conditions: VCaP cells, 16 h
T3 construct: detects endogenous levels of total androgen receptor protein; host or cells: VCaP
T3 sequence (P10275 1-920): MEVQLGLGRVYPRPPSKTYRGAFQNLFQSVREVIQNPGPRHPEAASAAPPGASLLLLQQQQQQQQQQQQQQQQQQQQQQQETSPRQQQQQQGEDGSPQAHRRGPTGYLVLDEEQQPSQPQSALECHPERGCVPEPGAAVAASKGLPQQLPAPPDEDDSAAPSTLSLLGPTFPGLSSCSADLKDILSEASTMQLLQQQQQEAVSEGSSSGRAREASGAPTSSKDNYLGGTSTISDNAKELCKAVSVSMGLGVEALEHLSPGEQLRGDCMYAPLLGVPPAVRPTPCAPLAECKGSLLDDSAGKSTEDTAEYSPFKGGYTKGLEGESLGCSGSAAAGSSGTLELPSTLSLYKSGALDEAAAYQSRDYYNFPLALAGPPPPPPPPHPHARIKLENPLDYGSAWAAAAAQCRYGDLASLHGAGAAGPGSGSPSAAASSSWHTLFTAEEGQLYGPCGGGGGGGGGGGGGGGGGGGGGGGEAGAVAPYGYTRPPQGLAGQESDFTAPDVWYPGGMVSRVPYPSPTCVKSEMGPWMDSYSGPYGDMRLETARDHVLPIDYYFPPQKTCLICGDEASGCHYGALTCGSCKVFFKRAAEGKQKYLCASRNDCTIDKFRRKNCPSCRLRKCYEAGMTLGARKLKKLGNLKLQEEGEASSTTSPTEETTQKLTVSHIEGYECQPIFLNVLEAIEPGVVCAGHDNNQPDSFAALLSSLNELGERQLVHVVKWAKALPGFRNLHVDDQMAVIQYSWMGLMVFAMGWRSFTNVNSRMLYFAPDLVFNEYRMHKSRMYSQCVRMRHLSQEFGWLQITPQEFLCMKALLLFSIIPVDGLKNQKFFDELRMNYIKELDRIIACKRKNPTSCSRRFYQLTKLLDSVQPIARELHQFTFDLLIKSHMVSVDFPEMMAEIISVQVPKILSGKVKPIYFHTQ
Procedure: as §1
VCaP cells were chased from ATCC and cultured in Dulbecco's Modified Eagle's Medium (ATCC), supplemented with 10% FBS (ATCC) and Penicillin/Streptomycin (Life Technologies). DMSO control and compound treatments (0.0001 μM to 1 μM) were performed in 96-well plates for 16 h. cells were harvested, and lysed with Cell Lysis Buffer (catalog #9803) (20 mM Tris-HCl, pH 7.5, 150 mM NaCl, 1 mM Na2EDTA, 1 mM EGTA, 1% Triton, 2.5 mM sodium pyrophosphate, 1 mM B-glycerophosphate, 1 mM Na3VO4, 1 μg/mL leupeptin. Lysates were clarified at 16,000 g for 10 minutes, and loaded into PathScan AR ELISA (Cell Signaling Catalog #12850). The PathScan Total Androgen Receptor Sanwich ELISA Kit is a solid phase sandwich enzyme-linked immunosorbent assay (ELISA) that detects endogenous levels of total androgen receptor protein. An Androgen Receptor Rabbit mAb has been coated onto the microwells. After incubation with cell lysates, androgen receptor protein is captured by the coated antibody. Following extensive washing, an Androgen receptor Mouse Detection mAbis added to detect the captured androgen receptor protein. Anti-mouse IgG, HRP-linked Antibody is then used to recognize the bound detection antibody. HRP substrate, TMB, is added to develop color. The magnitude of absorbance for the developed color is proportional to the quantity of total androgen receptor protein.

T1 sequence (Q00987 whole entry): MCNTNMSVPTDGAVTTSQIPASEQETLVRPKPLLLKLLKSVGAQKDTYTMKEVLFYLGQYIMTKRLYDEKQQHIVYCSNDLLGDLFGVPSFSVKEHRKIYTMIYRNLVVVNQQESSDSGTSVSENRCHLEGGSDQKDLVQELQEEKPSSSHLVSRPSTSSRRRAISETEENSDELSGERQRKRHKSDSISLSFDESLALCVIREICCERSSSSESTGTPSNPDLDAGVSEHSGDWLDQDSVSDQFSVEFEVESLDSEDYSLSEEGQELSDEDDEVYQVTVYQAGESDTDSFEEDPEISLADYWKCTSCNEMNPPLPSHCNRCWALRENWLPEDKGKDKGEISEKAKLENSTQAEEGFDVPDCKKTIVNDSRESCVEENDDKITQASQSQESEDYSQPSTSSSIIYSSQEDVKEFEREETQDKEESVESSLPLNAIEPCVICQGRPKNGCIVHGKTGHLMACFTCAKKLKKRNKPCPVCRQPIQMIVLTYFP

## COc1cc(C(=O)NCCOCCOCC(=O)N[C@H](C(=O)N2C[C@H](O)C[C@H]2C(=O)NCc2ccc(-c3scnc3C)cc2)C(C)(C)C)ccc1NC(=O)C1NC(CC(C)(C)C)C(C#N)(c2ccc(Cl)cc2F)C1c1cccc(Cl)c1F (mixture of isomers) [Compound A1877, 3-(3-chloro-2-fluorophenyl)-4-(4-chloro-2-fluorophenyl)-4-cyano-5-(2,2-dimethylpropyl)-N-[4-({2-[2-({[(2S)-1-[(2S,4R)-4-hydroxy-2-({[4-(4-methyl-1,3-thiazol-5-yl)phenyl]methyl}carbamoyl)pyrrolidin-1-yl]-3,3-dimethyl-1-oxobutan-2-yl]carbamoyl}methoxy)ethoxy]ethyl}carbamoyl)-2-methoxyphenyl]pyrrolidine-2-carboxamide]
p53
  p53 level increase: dose dependent p53 level increase
MDM2
  MDM2 up-regulation: up-regulation of MDM2

## COc1cc(C(=O)NCCOCCNC(=O)C[C@@H]2N=C(c3ccc(Cl)cc3)c3c(sc(C)c3C)-n3c(C)nnc32)ccc1NC(=O)[C@H]1N[C@H](CC(C)(C)C)[C@@](C#N)(c2ccc(Cl)cc2F)[C@@H]1c1cccc(Cl)c1F [Compound A1891, (2S,3R,4S,5R)-3-(3-chloro-2-fluorophenyl)-4-(4-chloro-2-fluorophenyl)-N-(4-{[2-(2-{2-[(9S)-7-(4-chlorophenyl)-4,5,13-trimethyl-3-thia-1,8,11,12-tetraazatricyclo[8.3.0.0^2,^6]-trideca-2(6),4,7,10,12-pentaen-9-yl]acetamido}ethoxy)ethyl]carbamoyl}-2-methoxyphenyl)-4-cyano-5-(2,2-dimethylpropyl)pyrrolidine-2-carboxamide]
p53
  p53 level increase: no p53 level increase
MDM2
  MDM2 up-regulation: no MDM2 up-regulation
[1]
  Degradation activity BRD4: A (0 to 25% degradation at 1 μM)

## COc1cc(C(=O)NCCOCCOCCNC(=O)C[C@@H]2N=C(c3ccc(Cl)cc3)c3c(sc(C)c3C)-n3c(C)nnc32)ccc1NC(=O)[C@@H]1N[C@@H](CC(C)(C)C)[C@](C#N)(c2ccc(Cl)cc2F)[C@H]1c1cccc(Cl)c1F [Compound A1864, (2R,3S,4R,5S)-3-(3-chloro-2-fluorophenyl)-4-(4-chloro-2-fluorophenyl)-N-[4-({2-[2-(2-{2-[(9S)-7-(4-chlorophenyl)-4,5,13-trimethyl-3-thia-1,8,11,12-tetraazatricyclo-[8.3.0.0^2,^6]trideca-2(6),4,7,10,12-pentaen-9-yl]acetamido}ethoxy)ethoxy]ethyl}-carbamoyl)-2-methoxyphenyl]-4-cyano-5-(2,2-dimethylpropyl)pyrrolidine-2-carboxamide]
p53
  p53 level increase: dose dependent p53 level increase
MDM2
  MDM2 up-regulation: up-regulation of MDM2
[1]
  Degradation activity BRD4: B (25 to 50% degradation at 1 μM)

## COc1cc(C(=O)NCCOCCOCCOCCOCCNC(=O)C[C@@H]2N=C(c3ccc(Cl)cc3)c3c(sc(C)c3C)-n3c(C)nnc32)ccc1NC(=O)[C@H]1N[C@H](CC(C)(C)C)[C@@](C#N)(c2ccc(Cl)cc2F)[C@@H]1c1cccc(Cl)c1F [Compound A1894, (2S,3R,4S,5R)-3-(3-chloro-2-fluorophenyl)-4-(4-chloro-2-fluorophenyl)-N-{4-[(14-{2-[(9S)-7-(4-chlorophenyl)-4,5,13-trimethyl-3-thia-1,8,11,12-tetraazatricyclo[8.3.0.0^2,^6]-trideca-2(6),4,7,10,12-pentaen-9-yl]acetamido}-3,6,9,12-tetraoxatetradecan-1-yl)carbamoyl]-2-methoxyphenyl}-4-cyano-5-(2,2-dimethylpropyl)pyrrolidine-2-carboxamide]
p53
  p53 level increase: no p53 level increase
MDM2
  MDM2 up-regulation: no MDM2 up-regulation
[1]
  Degradation activity BRD4: A (0 to 25% degradation at 1 μM)

## COc1cc(C(=O)NCCOCCOCCOCC(=O)N[C@H](C(=O)N2C[C@H](O)C[C@H]2C(=O)NCc2ccc(-c3scnc3C)cc2)C(C)(C)C)ccc1NC(=O)[C@H]1N[C@H](CC(C)(C)C)[C@@](C#N)(c2ccc(Cl)cc2F)[C@@H]1c1cccc(Cl)c1F [Compound A1911, (2S,3R,4S,5R)-3-(3-chloro-2-fluorophenyl)-4-(4-chloro-2-fluorophenyl)-4-cyano-5-(2,2-dimethylpropyl)-N-{4-[(2-{2-[2-({[(2S)-1-[(2S,4R)-4-hydroxy-2-({[4-(4-methyl-1,3-thiazol-5-yl)phenyl]methyl}-carbamoyl)pyrrolidin-1-yl]-3,3-dimethyl-1-oxobutan-2-yl]carbamoyl}methoxy)-ethoxy]ethoxy}ethyl)carbamoyl]-2-methoxyphenyl}pyrrolidine-2-carboxamide]
p53
  p53 level increase: no p53 level increase
MDM2
  MDM2 up-regulation: no MDM2 up-regulation

## COc1cc(C(=O)NCCOCCOCCOCCOCC(=O)N[C@H](C(=O)N2C[C@H](O)C[C@H]2C(=O)NCc2ccc(-c3scnc3C)cc2)C(C)(C)C)ccc1NC(=O)[C@H]1N[C@H](CC(C)(C)C)[C@@](C#N)(c2ccc(Cl)cc2F)[C@@H]1c1cccc(Cl)c1F (single isomer, unassigned) [Compound A1897]
p53
  p53 level increase: no p53 level increase
MDM2
  MDM2 up-regulation: no MDM2 up-regulation

## CC(C)(C)C[C@H]1N[C@H](C(=O)NCCOCCOCCOCCOCCOc2ccc(C(=O)N[C@H]3C(C)(C)[C@H](Oc4ccc(C#N)c(Cl)c4)C3(C)C)cc2)[C@@H](c2cccc(Cl)c2F)[C@]1(C#N)c1ccc(Cl)cc1F [Compound A1735, (2S,3R,4S,5R)-3-(3-chloro-2-fluorophenyl)-4-(4-chloro-2-fluorophenyl)-4-cyano-5-(2,2-dimethylpropyl)-N-[1-(4-{[(1r,3r)-3-(3-chloro-4-cyanophenoxy)-2,2,4,4-tetramethylcyclobutyl]carbamoyl]phenyl)-1,4,7,10,13-pentaoxapentadecan-15-yl]pyrrolidine-2-carboxamide]
Androgen receptor (AR)
  AR degradation (%) at 1 µM: 0 to 25%

## COc1cc(C(=O)NCCOCCOCC(=O)N[C@H](C(=O)N2C[C@H](O)C[C@H]2C(=O)NCc2ccc(-c3scnc3C)cc2)C(C)(C)C)ccc1NC(=O)[C@H]1N[C@H](CC(C)(C)C)[C@@](C#N)(c2ccc(Cl)cc2F)[C@@H]1c1cccc(Cl)c1F [Compound A1908]
p53
  p53 level increase: no p53 level increase
MDM2
  MDM2 up-regulation: no MDM2 up-regulation

## CCOc1cc(C(C)(C)C)ccc1C1=NC(C)(c2ccc(Cl)cc2)C(C)(c2ccc(Cl)cc2)N1C(=O)N1CCN(CCOCCOCCOCCOCCOCCOc2ccc(N3C(=S)N(c4ccc(C#N)c(C(F)(F)F)c4)C(=O)C3(C)C)cc2)CC1 (stereo not shown) [Compound A702, 4-(3-{4-[(17-{4-[2-(4-tert-butyl-2-ethoxyphenyl)-4,5-bis(4-chlorophenyl)-4,5-dimethyl-4,5-dihydro-1H-imidazole-1-carbonyl]piperazin-1-yl}-3,6,9,12,15-pentaoxaheptadecan-1-yl)oxy]phenyl}-4,4-dimethyl-5-oxo-2-sulfanylideneimidazolidin-1-yl)-2-(trifluoromethyl)benzonitrile]
Androgen receptor (AR)
  AR degradation (%) at 1 µM: 25 to 50%
